According to patent US20240158446A1, “CYCLIC COMPOUND HAVING SELECTIVE INHIBITORY ACTION ON KRAS OVER HRAS AND NRAS” (CHUGAI SEIYAKU KABUSHIKI KAISHA, priority 2021, published 2024):
Like-named read-outs stand apart in the source and are kept apart here. Where a SMILES comes first, the peptide text is derived from it. Bridges are numbered along the chain shown (N, C = ends). [ ]: non-standard residue; d: D form. The star is where a group is joined. hPhe(3-Cl-4-CF3) = N[C@@H](CCc1ccc(C(F)(F)F)c(Cl)c1)C(=O)O; NPrPhe(4-CF3) = CCCN[C@@H](Cc1ccc(C(F)(F)F)cc1)C(=O)O; NMeGly(cPent) = CN[C@H](C(=O)O)C1CCCC1; NMeD = CN[C@@H](CC(=O)O)C(=O)O; NMeNva = CCC[C@H](NC)C(=O)O; Morpholide = C1CN(*)CCO1; Ac4c = NC1(C(=O)O)CCC1; NPrGly = CCCNCC(=O)O; Sar = CNCC(=O)O

How the values were obtained:
[1] = test system: human lung cancer strain NCI-H441;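 note: cell proliferation inhibition after four days measured by CellTiter-Glo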
[2] = molecular target: GDP-bound NRAS wild-type protein (Homo sapiens, UniProt P01111); assay: Binding to NRAS by surface plasmon resonance (SPR), Single Cycle Kinetics; settings: for NRAS/KRAS (ratio of KD value with respect to GDP-bound NRAS wild-type protein to KD value with respect to KRAS): SPR KD ratio NRAS/KRAS, class symbols; for NRAS/KRAS (KD ratio): ratio of KD for GDP-bound NRAS wild-type protein to KD for KRAS
[3] = molecular target: GDP-bound HRAS wild-type protein (Homo sapiens, UniProt P01112); assay: Binding to HRAS by surface plasmon resonance (SPR), Single Cycle Kinetics; settings: for HRAS/KRAS (ratio of KD value with respect to GDP-bound HRAS wild-type protein to KD value with respect to KRAS): SPR KD ratio HRAS/KRAS, class symbols; for HRAS/KRAS (KD ratio): ratio of KD for GDP-bound HRAS wild-type protein to KD for KRAS
[4] = molecular target: GDP-bound KRAS wild-type protein (Homo sapiens, UniProt P01116); assay: Binding to KRAS by surface plasmon resonance (SPR), Single Cycle Kinetics; settings: GDP-bound KRAS wild-type protein, read-out: KRAS KD
[5] = SPR Single Cycle Kinetics, 1:1 binding model
[6] = read-out: NCI-H441 IC50, NCI-H441 cell proliferation, 4 days, CellTiter-Glo
[7] = SPR, GDP-bound NRAS wild-type protein vs GDP-bound KRAS wild-type protein
[8] = SPR, GDP-bound HRAS wild-type protein vs GDP-bound KRAS wild-type protein
[9] = SPR, GDP-bound NRAS wild-type protein vs GDP-bound KRAS wild-type protein, KD ratio class
[10] = SPR, GDP-bound HRAS wild-type protein vs GDP-bound KRAS wild-type protein, KD ratio class
[11] = SPR, Single Cycle Kinetics, 1:1 binding model

Chain of GDP-bound KRAS wild-type protein (P01116 whole entry): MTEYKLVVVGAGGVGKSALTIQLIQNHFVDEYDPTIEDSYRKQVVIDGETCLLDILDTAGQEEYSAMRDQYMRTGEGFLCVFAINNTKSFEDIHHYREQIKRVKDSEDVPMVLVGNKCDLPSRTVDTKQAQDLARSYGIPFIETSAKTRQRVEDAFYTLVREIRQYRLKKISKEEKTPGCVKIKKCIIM
Chain of GDP-bound NRAS wild-type protein (P01111 whole entry): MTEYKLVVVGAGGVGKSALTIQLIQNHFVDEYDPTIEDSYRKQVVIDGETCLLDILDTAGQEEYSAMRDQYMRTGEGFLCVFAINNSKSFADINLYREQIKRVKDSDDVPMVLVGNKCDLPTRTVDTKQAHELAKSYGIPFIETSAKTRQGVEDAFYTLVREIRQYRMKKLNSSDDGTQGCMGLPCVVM
Chain of GDP-bound HRAS wild-type protein (P01112 whole entry): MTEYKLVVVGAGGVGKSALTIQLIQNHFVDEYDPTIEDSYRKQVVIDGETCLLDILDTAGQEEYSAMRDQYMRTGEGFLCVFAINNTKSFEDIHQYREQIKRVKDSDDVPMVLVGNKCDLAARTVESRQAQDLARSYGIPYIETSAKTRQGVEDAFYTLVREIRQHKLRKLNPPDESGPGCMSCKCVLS

SMILES	IC50 [1]	Kd [4, 5]	Kd ([4]; SPR, Single Cycle Kinetics)	Kd [4, 11]	NRAS/KRAS (ratio of KD value for NRAS to KD value for KRAS) [2, 9]	HRAS/KRAS (ratio of KD value for HRAS to KD value for KRAS) [3, 10]	other results
CCC(CC)[C@H]1C(=O)N(C)[C@H](C(=O)N(C)C)CC(=O)N(C)[C@@H](COC)C(=O)N[C@@H]([C@@H](C)CC)C(=O)N(C2CC2)CC(=O)N(C)[C@H]2C/C=C\CCN(C2=O)[C@@H](Cc2ccc(C)cc2)C(=O)N(C)CC(=O)N[C@@H](CCc2cc(F)c(C(F)(F)F)c(F)c2)C(=O)N2C[C@H](OC3CCCC3)C[C@H]2C(=O)NC2(CC(C)(C)C2)C(=O)N1C [PP2619]	132 nM	1.2 nM	–	–	–	–	NRAS/KRAS (ratio of KD value with respect to GDP-bound NRAS wild-type protein to KD value with respect to KRAS) [2]: AA (a compound having 20 or more is denoted as AA); HRAS/KRAS (ratio of KD value with respect to GDP-bound HRAS wild-type protein to KD value with respect to KRAS) [3]: A (a compound having 10 or more and less than 20 is denoted as A)
CCC[C@H]1C(=O)N[C@@H]([C@@H](C)CC)C(=O)N(C2CC2)CC(=O)N(C)[C@H]2C/C=C\CCN(C2=O)[C@@H](Cc2ccc(C)cc2)C(=O)N(C)CC(=O)N[C@@H](CCc2cc(F)c(C(F)(F)F)c(F)c2)C(=O)N2C[C@H](OC(C)C)C[C@H]2C(=O)NC2(CC(C)(C)C2)C(=O)N(C)[C@@H](C2CCCC2)C(=O)N(C)[C@H](C(=O)N(C)C)CC(=O)N1C [PP2570]	8.9 nM	0.39 nM	–	–	–	–	NRAS/KRAS (ratio of KD value with respect to GDP-bound NRAS wild-type protein to KD value with respect to KRAS) [2]: A (a compound having 10 or more and less than 20 is denoted as A); HRAS/KRAS (ratio of KD value with respect to GDP-bound HRAS wild-type protein to KD value with respect to KRAS) [3]: A (a compound having 10 or more and less than 20 is denoted as A)
CCO[C@@H]1C[C@H]2C(=O)NC3(CCC3)C(=O)N(C)[C@@H](C3CCCC3)C(=O)N(C)[C@H](C(=O)N(C)C)CC(=O)N(C)[C@@H](CC3CCCC3)C(=O)N[C@@H]([C@@H](C)CC)C(=O)N(C)CC(=O)N(C)[C@H]3C/C=C\CCN(C3=O)[C@@H](CC3CCCCC3)C(=O)N(C)CC(=O)N[C@@H](CCc3cc(F)c(C(F)(F)F)c(F)c3)C(=O)N2C1 [PP1472, (2S,8S,12R,14S,20S,23S,27S,30S,36S,38Z)-2-(cyclohexylmethyl)-20-cyclopentyl-27-(cyclopentylmethyl)-8-[2-[3,5-difluoro-4-(trifluoromethyl)phenyl]ethyl]-12-ethoxy-N,N,4,19,22,26,32,35-octamethyl-30-[(1S)-1-methylpropyl]-3,6,9,15,18,21,25,28,31,34,42-undecaoxo-spiro[1,4,7,10,16,19,22,26,29,32,35-undecazatricyclo[34.5.1.0^10,14]dotetracont-38-ene-17,1′-cyclobutane]-23-carboxamide]	37.1 nM	–	–	0.14 nM	A (a compound having 10 or more and less than 20 is denoted as A)	A (a compound having 10 or more and less than 20 is denoted as A)	–
CCOC[C@H]1C(=O)N[C@@H]([C@@H](C)CC)C(=O)N(C)CC(=O)N(C)[C@H]2C/C=C\CCN(C2=O)[C@@H](CC2CCC(F)(F)CC2)C(=O)N(C)CC(=O)N[C@@H](CCc2ccc(C(F)(F)F)c(Cl)c2)C(=O)N2C[C@@H](C)C[C@H]2C(=O)NC2(CC(C)(C)C2)C(=O)N(C)[C@@H](C(CC)CC)C(=O)N(C)[C@H](C(=O)N(C)C)CC(=O)N1C [PP2475]	176 nM	–	1.5 nM	–	–	–	NRAS/KRAS (ratio of KD value for NRAS to KD value for KRAS) [2, 7]: AA (a compound having 20 or more is denoted as AA); HRAS/KRAS (ratio of KD value for HRAS to KD value for KRAS) [3, 8]: A (a compound having 10 or more and less than 20 is denoted as A)
CCO[C@@H]1C[C@H]2C(=O)NC3(CCC3)C(=O)N(C)[C@@H](C3CCCC3)C(=O)N(C)[C@H](C(=O)N(C)C)CC(=O)N(C)[C@@H](CC)C(=O)N[C@@H]([C@@H](C)CC)C(=O)N(C)CC(=O)N(C)[C@H]3C/C=C\CCN(C3=O)[C@@H](CC3CCC(F)(F)CC3)C(=O)N(C)CC(=O)N[C@@H](CCc3cc(F)c(C(F)(F)F)c(F)c3)C(=O)N2C1 [PP1452, (2S,8S,12R,14S,20S,23S,27S,30S,36S,38Z)-20-cyclopentyl-2-[(4,4-difluorocyclohexyl)methyl]-8-[2-[3,5-difluoro-4-(trifluoromethyl)phenyl]ethyl]-12-ethoxy-27-ethyl-N,N,4,19,22,26,32,35-octamethyl-30-[(1S)-1-methylpropyl]-3,6,9,15,18,21,25,28,31,34,42-undecaoxo-spiro[1,4,7,10,16,19,22,26,29,32,35-undecazatricyclo[34.5.1.0^10,14]dotetracont-38-ene-17,1′-cyclobutane]-23-carboxamide]	30.5 nM	–	–	0.13 nM	A (a compound having 10 or more and less than 20 is denoted as A)	A (a compound having 10 or more and less than 20 is denoted as A)	–

More lines, main results first:

IC50 [1]	Kd [4, 5]	Kd ([4]; SPR, Single Cycle Kinetics)	Kd [4, 11]	SMILES	NRAS/KRAS (ratio of KD value for NRAS to KD value for KRAS) [2, 9]	HRAS/KRAS (ratio of KD value for HRAS to KD value for KRAS) [3, 10]	other results
–	–	0.053 nM	–	CCCC[C@H]1C(=O)N[C@@H]([C@@H](C)CC)C(=O)N(C)CC(=O)N(C)[C@H]2C/C=C\CCN(C2=O)[C@@H](Cc2ccc(C(F)(F)F)cc2)C(=O)N(C)CC(=O)N[C@@H](CCc2cc(F)c(C(F)(F)F)c(F)c2)C(=O)N2C[C@H](OCC)C[C@H]2C(=O)NC2(CC(F)(F)C2)C(=O)N(C)[C@@H](C2CCCC2)C(=O)N(C)[C@H](C(=O)N(C)C)CC(=O)N1C [PP1740]	–	–	IC50 [1, 6]: 3.6 nM; NRAS/KRAS (KD ratio) ([2]; SPR): A (a compound having 10 or more and less than 20 is denoted as A); HRAS/KRAS (KD ratio) ([3]; SPR): A (a compound having 10 or more and less than 20 is denoted as A)
127 nM	0.44 nM	–	–	CCO[C@@H]1C[C@H]2C(=O)NC3(CC=CC3)C(=O)N(C)[C@@H](C3CCCC3)C(=O)N(C)[C@H](C(=O)N(C)C)CC(=O)N(C)[C@@H](C)C(=O)N[C@@H]([C@@H](C)CC)C(=O)N(C)CC(=O)N(C)[C@H]3CCCCCN(C3=O)[C@@H](Cc3ccc(C(F)(F)F)cc3)C(=O)N(C)CC(=O)N[C@@H](CCc3cc(F)c(C(F)(F)F)c(F)c3)C(=O)N2C1 [PP0724]	–	–	NRAS/KRAS (ratio of KD value with respect to NRAS to KD value with respect to KRAS) [2, 7]: B (a compound having 3 or more and less than 10 is denoted as B); HRAS/KRAS (ratio of KD value with respect to HRAS to KD value with respect to KRAS) [3, 8]: B (a compound having 3 or more and less than 10 is denoted as B)
54.8 nM	–	–	0.12 nM	CCO[C@@H]1C[C@H]2C(=O)NC3(CCC3)C(=O)N(C)[C@@H](C3CCCC3)C(=O)N(C)[C@H](C(=O)N3CCOCC3)CC(=O)N(C)[C@@H](C)C(=O)N[C@@H]([C@@H](C)CC)C(=O)N(C)CC(=O)N(C)[C@H]3C/C=C\CCN(C3=O)[C@@H](Cc3ccc(C(F)(F)F)cc3)C(=O)N(C)CC(=O)N[C@@H](CCc3cc(F)c(C(F)(F)F)c(F)c3)C(=O)N2C1 [PP1284]	AA (a compound having 20 or more is denoted as AA)	A (a compound having 10 or more and less than 20 is denoted as A)	–
4.9 nM	–	–	0.047 nM	CCO[C@@H]1C[C@H]2C(=O)NC3(CC(C)(C)C3)C(=O)N(C)[C@@H](C3CCCC3)C(=O)N(C)[C@H](C(=O)N(C)C)CC(=O)N(C)[C@@H](CC)C(=O)N[C@@H]([C@@H](C)CC)C(=O)N(C)CC(=O)N(C)[C@H]3C/C=C\CCN(C3=O)[C@@H](Cc3ccc(C(F)(F)F)cc3)C(=O)N(C)CC(=O)N[C@@H](CCc3cc(F)c(C(F)(F)F)c(F)c3)C(=O)N2C1 [PP1275, (2S,8S,12R,14S,20S,23S,27S,30S,36S,38Z)-20-cyclopentyl-8-[2-[3,5-difluoro-4-(trifluoromethyl)phenyl]ethyl]-12-ethoxy-27-ethyl-N,N,3′,3′,4,19,22,26,32,35-decamethyl-30-[(1S)-1-methylpropyl]-3,6,9,15,18,21,25,28,31,34,42-undecaoxo-2-[[4-(trifluoromethyl)phenyl]methyl]spiro[1,4,7,10,16,19,22,26,29,32,35-undecazatricyclo[34.5.1.0^10,14]dotetracont-38-ene-17,1′-cyclobutane]-23-carboxamide]	A (a compound having 10 or more and less than 20 is denoted as A)	A (a compound having 10 or more and less than 20 is denoted as A)	–
–	–	0.92 nM	–	CCC[C@H]1C(=O)N[C@@H]([C@@H](C)CC)C(=O)N(C)CC(=O)N(CCC)CC(=O)N(CCC)[C@@H](Cc2ccc(C(F)(F)F)cc2)C(=O)N(C)CC(=O)N[C@@H](CCc2ccc(C(F)(F)F)c(Cl)c2)C(=O)N2CCC[C@H]2C(=O)NC2(CCC2)C(=O)N(C)[C@@H](C2CCCC2)C(=O)N(C)[C@H](C(=O)N2CCOCC2)CC(=O)N1C [PP1949] ([NMeNva]I[Sar][NPrGly][NPrPhe(4-CF3)][Sar][hPhe(3-Cl-4-CF3)]P[Ac4c][NMeGly(cPent)][NMeD]-Morpholide; lactam N-11)	–	–	IC50 [1, 6]: 9.3 nM; NRAS/KRAS (KD ratio) ([2]; SPR): C (A compound having a KD ratio of 0.1 or more and less than 3 is denoted as C); HRAS/KRAS (KD ratio) ([3]; SPR): C (A compound having a KD ratio of 0.1 or more and less than 3 is denoted as C)
